# Target: T1, Human OTUB1 wild-type (Homo sapiens, UniProt Q96FW1)
# T1 construct: His tag (N); made in house; host or cells: E. coli BL21-CodonPlus (DE3)-RIPIL
# Experiment: Covalent modification of OTUB1 (adduct formation), mass spectrometry-based assay (OTUB1 covalent binders; selected CFTR or cGAS based bivalent compounds)
# Format: binding
# Conditions: covalent adduct formation with OTUB1 protein
# Description: OTUB1 covalent binders were tested for their ability to form the covalent adduct with OTUB1 protein using a mass-spectrometry based assay.
# Example 389. Assessment of the Covalent Modification of OTUB1 Protein by Selected OTUB1 Covalent Binders Using a Mass Spectrometry-Based Assay (FIG. 1)
# OTUB1 protein (10 μM) was incubated with selecting compounds (2500 μM) at RT for 1 h. The adduct was qualified by mass spectrometry-based assays.
# Example 398. Assessment of the Covalent Modification of OTUB1 Protein by Selected CFTR Based Bivalent Compounds Using Mass Spectrometry-Based Assay (FIG. 10)
# OTUB1 protein (10 μM) was incubated with selecting bivalent compounds (2500 μM) at RT for 1 h. The adduct was qualified by mass spectrometry-based assays.
# Human OTUB1 wild-type (NM_017670.3) and C23S mutation genes were optimized based on the codon preference of E. coli, synthesized and cloned into pET15b vector with a N-terminal His tag by Genscript, respectively. The plasmid was transferred to BL21-CodonPlus (DE3)-RIPIL Competent Cell (230280, Agilent Technologies) and the recombinant protein was induced expressed by 0.5 mM IPTG at 16° C. with shaking 200 rpm for 18 h. Induced cells were harvested by centrifugation and resuspended in cold lysis buffer (50 mM Tris-H—Cl pH 7.5, 150 mM NaCl, 25 mM imidazole pH 7.5, 0.01% IGEPAL, 5% Glycerol) in the presence of Pierce Protease Inhibitor tablets (PIA32963, Fisher Scientific) and 2 mM TCEP pH 7.5.
# The cells were lysed by sonication, clarified by centrifugation, and the filtered supernatant loaded onto a 5 ml HisTrap HP affinity column (17524802, Cytiva) in AKTA system. The His-recombinant protein bound to column was washed using buffer A (50 mM Tris-HCl pH 7.5, 150 mM NaCl, 25 mM imidazole pH 7.5, 0.01% IGEPAL, 5% Glycerol) and eluted with buffer B (50 mM Tris-HCl pH 7.5, 150 mM NaCl, 250 mM imidazole pH 7.5, 0.01% IGEPAL, 5% Glycerol). The eluted fractions containing OTUB1 protein were concentrated and subjected to size exclusion chromatography using a 320 mL HiLoad 26/600 Superdex 200 pg column (28989336, Cytiva) under the buffer condition ([…] Tris-HCl pH 7.5, 150 mM NaCl, and 2 mM TCEP pH 7.5). The eluted fractions containing OTUB1 protein were concentrated, divided into aliquots and stored at −80° C. freezer for further usage.
# Quality control of the OTUB1 proteins was performed by SDS-PAGE, Nanodrop and mass spectrometry.
# Mass Spectrometry-Based Analysis of OTUB1-Covalent Ligand Adducts
# To screen the covalent ligands, recombinant OTUB1 protein (10 μM) was respectively incubated with DMSO, EN523 or seven novel ligands (2500 μM) in reaction buffer (50 mM Tris-HCl pH 7.5, 150 mM NaCl, and 0.5 mM TCEP pH 7.5) for 1 h at room temperature.
# Then, the total 500 μL reaction solution was exchanged and concentrated to 50 μL 50 mM ammonium bicarbonate with a 10 kDa MWCO centrifugal filter unit (UFC901024, Millipore) and diluted in MS buffer (30% ACN, 0.2% FA) to a final concentration of […]. Mass spectrometry detection was performed by an Agilent LC/MSD Time-Of-Flight (TOF) mass spectrometer (Agilent Technologies) equipped with an electrospray ion source. The data was analyzed by TOF Protein Confirmation Software. All experiments were performed in duplicate.
# T1 sequence (Q96FW1 whole entry): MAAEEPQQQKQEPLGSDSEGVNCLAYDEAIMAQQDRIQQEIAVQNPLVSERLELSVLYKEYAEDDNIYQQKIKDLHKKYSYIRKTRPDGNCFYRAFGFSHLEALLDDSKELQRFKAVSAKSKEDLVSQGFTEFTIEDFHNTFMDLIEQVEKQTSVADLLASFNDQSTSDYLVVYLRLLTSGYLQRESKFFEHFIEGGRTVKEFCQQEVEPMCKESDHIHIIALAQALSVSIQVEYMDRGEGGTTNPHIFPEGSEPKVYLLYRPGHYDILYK
row,SMILES,% of OTUB1 modified [%]
1,"Cc1ccc(N2CCCN(C(=O)/C=C/CN(C)C)CC2=O)s1 [XS175-120, (E)-4-(4-(dimethylamino)but-2-enoyl)-1-(5-methylthiophen-2-yl)-1,4-diazepan-2-one]",47
2,"Cc1ccc(C(=O)N2CC3CCC2CN3C(=O)/C=C/CN(C)C)s1 (stereo not shown) [XS190-77, (E)-4-(dimethylamino)-1-(5-(5-methylthiophene-2-carbonyl)-2,5-diazabicyclo[2.2.2]octan-2-yl)but-2-en-1-one]",7
3,"Cc1ccc(C(=O)N2C[C@H]3C[C@@H]2CN3C(=O)/C=C/CN(C)C)s1 [XS190-81, (E)-4-(dimethylamino)-1-((1R,4R)-5-(5-methylthiophene-2-carbonyl)-2,5-diazabicyclo[2.2.1]heptan-2-yl)but-2-en-1-one]",10
4,"Cc1cnc(NC(=O)C2(O)CN(C(=O)/C=C/CN(C)C)C2)s1 [XS209-39, (E)-1-(4-(dimethylamino)but-2-enoyl)-3-hydroxy-N-(5-methylthiazol-2-yl)azetidine-3-carboxamide]",40
5,"Cc1ccc(C(=O)N2CCC3(CN(C(=O)/C=C/CN(C)C)C3)C2)s1 [XS185-97, (E)-4-(dimethylamino)-1-(6-(5-methylthiophene-2-carbonyl)-2,6-diazaspiro[3.4]octan-2-yl)but-2-en-1-one]",25
6,"Cc1ccc(C(=O)NCC2CCN2C(=O)/C=C/CN(C)C)s1 (stereo not shown) [XS190-127, (E)-N-((1-(4-(dimethylamino)but-2-enoyl)azetidin-2-yl)methyl)-5-methylthiophene-2-carboxamide]",15
7,"Cc1ccc(C(=O)N2C3CCC2CN(C(=O)/C=C/CN(C)C)C3)s1 [XS185-71, (E)-4-(dimethylamino)-1-(8-(5-methylthiophene-2-carbonyl)-3,8-diazabicyclo[3.2.1]octan-3-yl)but-2-en-1-one]",15
8,"CC(=O)N1CCC(c2ccc(C(=O)N3CC4CC(C3)N4C(=O)/C=C/CN(C)C)s2)C1 (stereo not shown) [XS197-71, (E)-1-(3-(5-(1-acetylpyrrolidin-3-yl)thiophene-2-carbonyl)-3,6-diazabicyclo[3.1.1]heptan-6-yl)-4-(dimethylamino)but-2-en-1-one]",78
9,"CC(=O)N1CCC2(CC1)CC(C(=O)N1CC3CC(C1)N3C(=O)/C=C/CN(C)C)C2 [XS197-176, (E)-1-(3-(7-acetyl-7-azaspiro[3.5]nonane-2-carbonyl)-3,6-diazabicyclo[3.1.1]heptan-6-yl)-4-(dimethylamino)but-2-en-1-one]",30
10,"Cc1ccc(N(C)C(=O)CCN(C)C(=O)/C=C/CN(C)C)s1 [XS175-160, (E)-4-(dimethylamino)-N-methyl-N-(3-(methyl(5-methylthiophen-2-yl)amino)-3-oxopropyl)but-2-enamide]",<1
11,"CN(C)C/C=C/C(=O)N1C2CC1CN(C(=O)C1CCCC1)C2 [XS190-128, (E)-1-(3-(cyclopentanecarbonyl)-3,6-diazabicyclo[3.1.1]heptan-6-yl)-4-(dimethylamino)but-2-en-1-one]",47
12,"Cc1cccc(N2CCN(C(=O)C#C[Si](C)(C)C)CC2=O)c1 [XS165-77, 1-(m-tolyl)-4-(3-(trimethylsilyl)propioloyl)piperazin-2-one]",100
13,"Cc1cnc(C(=O)N2CC3CC(C2)N3C(=O)/C=C/CN(C)C)o1 [XS209-92, (E)-4-(dimethylamino)-1-(3-(5-methyloxazole-2-carbonyl)-3,6-diazabicyclo[3.1.1]heptan-6-yl)but-2-en-1-one]",15
14,"C=CC(=O)N1CCN(c2ccc(C)s2)C(=O)C1 [XS154-91, 4-acryloyl-1-(5-methylthiophen-2-yl)piperazin-2-one]",52
15,"CN(C)CC#CC(=O)N1CC(NC(=O)c2cc3ccccc3s2)C1 [XS224-155, A-(1-(4-(dimethylamino)but-2-ynoyl)azetidin-3-yl)benzo[b]thiophene-2-carboxamide]",97
16,"CN(C)C(C)(C)C#CC(=O)N1CC(C(=O)Nc2csc3ccccc23)C1 [XS224-119, N-(benzo[b]thiophen-3-yl)-1-(4-(dimethylamino)-4-methylpent-2-ynoyl)azetidine-3-carboxamide]",60
17,"Cc1ccc(C(=O)NC2CC(NC(=O)C#CCN(C)C)C2)s1 (stereo not shown) [XS224-148, N-(3-(4-(dimethylamino)but-2-ynamido)cyclobutyl)-5-methylthiophene-2-carboxamide]",90
18,"CN(C)C/C=C/C(=O)N1C2CC1CN(C(=O)c1cc3c(s1)CCCC3)C2 [XS190-48, (E)-4-(dimethylamino)-1-(3-(4,5,6,7-tetrahydrobenzo[b]thiophene-2-carbonyl)-3,6-diazabicyclo[3.1.1]heptan-6-yl)but-2-en-1-one]",90
19,"CC(C)c1ccc(NC(=O)C2CN(C(=O)C#CCN(C)C)C2)s1 [XS224-116, 1-(4-(dimethylamino)but-2-ynoyl)-N-(5-isopropylthiophen-2-yl)azetidine-3-carboxamide]",100
20,"Cc1ccc(NC(=O)C2(O)CN(C(=O)C#CC(C)(C)N(C)C)C2)s1 [XS209-100, 1-(4-(dimethylamino)-4-methylpent-2-ynoyl)-3-hydroxy-N-(5-methylthiophen-2-yl)azetidine-3-carboxamide]",25
21,"CC(=O)N1CC2(CC(C(=O)N3CC4CC(C3)N4C(=O)/C=C/CN(C)C)C2)C1 [XS197-133, (E)-1-(3-(2-acetyl-2-azaspiro[3.3]heptane-6-carbonyl)-3,6-diazabicyclo[3.1.1]heptan-6-yl)-4-(dimethylamino)but-2-en-1-one]",25
22,"CN(C)C/C=C/C(=O)N1C2CCC1C(=O)N(c1cc3ccccc3s1)C2 (stereo not shown) [XS190-38, (E)-3-(benzo[b]thiophen-2-yl)-8-(4-(dimethylamino)but-2-enoyl)-3,8-diazabicyclo[3.2.1]octan-2-one]",100
23,"CN(C)C/C=C/C(=O)N1CC(NC(=O)c2cc3c(s2)CCCC3)C1 [XS224-157, (E)-N-(1-(4-(dimethylamino)but-2-enoyl)azetidin-3-yl)-4,5,6,7-tetrahydrobenzo[b]thiophene-2-carboxamide]",49
24,"CC(=O)Nc1ccc2sc(C(=O)N3CC4CC(C3)N4C(=O)/C=C/CN(C)C)cc2c1 [XS190-59, (E)-N-(2-(6-(4-(dimethylamino)but-2-enoyl)-3,6-diazabicyclo[3.1.1]heptane-3-carbonyl)benzo[b]thiophen-5-yl)acetamide]",92
25,"Cc1ccc(C(=O)N2CC3CC(C2)N3C(=O)/C=C/CN(C)C)s1 [XS185-72, (E)-4-(dimethylamino)-1-(3-(5-methylthiophene-2-carbonyl)-3,6-diazabicyclo[3.1.1]heptan-6-yl)but-2-en-1-one]",90
26,"CN(C)C/C=C/C(=O)N1CC2(CCN(c3cc4ccccc4s3)CC2)C1 [XS185-147, (E)-1-(7-(benzo[b]thiophen-2-yl)-2,7-diazaspiro[3.5]nonan-2-yl)-4-(dimethylamino)but-2-en-1-one]",15
27,"CC(=O)N1CC2CC(C1)N2C(=O)C#CCN(C)C [XS209-101, 1-(3-acetyl-3,6-diazabicyclo[3.1.1]heptan-6-yl)-4-(dimethylamino)but-2-yn-1-one]",100
28,"CC1CCC(C(=O)N2CC3CC(C2)N3C(=O)/C=C/CN(C)C)C1 (stereo not shown) [XS190-170, (E)-4-(dimethylamino)-1-(3-(3-methylcyclopentane-1-carbonyl)-3,6-diazabicyclo[3.1.1]heptan-6-yl)but-2-en-1-one]",55

# — US20260315604A1, “OTUB1 Small-Molecule Binders and OTUB1-recruiting Deubiquitinase-targeting Chimeras (DUBTACs)” (ICAHN SCHOOL OF MEDICINE AT MOUNT SINAI, priority 2023, published 2026)
